From PMC5668434, “Modulation of telomere protection by the PI3K/AKT pathway” (Nature Communications, 2017)
Where two headings read alike, the source gives them in different places.

Assays:
mTOR = conditions: reported in literature; cited from earlier work
PI3Kγ = conditions: reported in literature, cited from earlier work
PI3Kβ = conditions: reported in literature, cited from earlier work
PI3Kα = conditions: reported in literature, cited from earlier work
mTOR (FRAP1) = target: T1, mTOR (FRAP1) (Homo sapiens, UniProt P42345); test: mTOR biochemical assay (LanthaScreen); conditions: for IC50: internal data
T1 construct: purchased ThermoFisher PV4753
T1 sequence (P42345 1360-2549 limits assumed): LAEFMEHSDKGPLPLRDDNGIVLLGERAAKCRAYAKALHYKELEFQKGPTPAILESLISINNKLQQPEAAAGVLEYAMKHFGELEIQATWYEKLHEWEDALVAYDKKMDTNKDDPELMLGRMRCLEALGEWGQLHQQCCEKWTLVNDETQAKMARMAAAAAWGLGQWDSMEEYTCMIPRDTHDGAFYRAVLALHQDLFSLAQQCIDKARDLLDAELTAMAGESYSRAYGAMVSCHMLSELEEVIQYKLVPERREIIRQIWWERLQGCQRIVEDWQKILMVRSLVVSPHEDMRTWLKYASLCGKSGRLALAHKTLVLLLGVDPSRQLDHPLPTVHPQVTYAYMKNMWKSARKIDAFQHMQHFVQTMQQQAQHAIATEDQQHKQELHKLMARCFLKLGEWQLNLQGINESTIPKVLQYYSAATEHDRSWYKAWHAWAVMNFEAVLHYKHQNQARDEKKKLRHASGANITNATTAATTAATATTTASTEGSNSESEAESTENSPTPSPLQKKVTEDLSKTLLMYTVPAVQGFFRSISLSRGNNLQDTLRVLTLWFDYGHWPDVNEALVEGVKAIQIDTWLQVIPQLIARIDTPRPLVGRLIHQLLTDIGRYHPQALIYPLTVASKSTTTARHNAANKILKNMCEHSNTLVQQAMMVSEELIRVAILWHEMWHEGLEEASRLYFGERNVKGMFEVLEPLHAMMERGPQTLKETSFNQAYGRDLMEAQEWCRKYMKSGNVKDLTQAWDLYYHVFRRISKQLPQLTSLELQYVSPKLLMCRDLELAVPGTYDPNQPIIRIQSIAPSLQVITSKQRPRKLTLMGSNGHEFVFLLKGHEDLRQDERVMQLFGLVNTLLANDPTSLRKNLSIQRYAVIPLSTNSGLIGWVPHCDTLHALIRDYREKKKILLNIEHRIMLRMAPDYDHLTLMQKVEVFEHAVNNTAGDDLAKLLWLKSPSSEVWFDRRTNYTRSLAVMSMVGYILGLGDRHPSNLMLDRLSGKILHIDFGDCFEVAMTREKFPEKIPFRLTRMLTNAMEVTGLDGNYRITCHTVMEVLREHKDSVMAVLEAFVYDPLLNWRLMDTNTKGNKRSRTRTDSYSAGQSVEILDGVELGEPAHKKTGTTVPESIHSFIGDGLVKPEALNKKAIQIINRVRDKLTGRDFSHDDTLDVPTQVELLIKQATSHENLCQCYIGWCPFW

[1] = system: TRF1 foci in CHA-9.3 mouse lung tumor cell line; test: TRF1 foci immunofluorescence in CHA-9.3 cells; type: cell-based; conditions: for Inhibition of TRF1 foci (in words): 10 μM (GSK-2126458 1.0 μM)
Method: TRF1 immunofluorescence of TRF1 was performed in lung tumor-derived cell line (CHA9.3) and in MEFs[39]. A rat monoclonal antibody against mouse TRF1 developed by the Monoclonal antibody unit at CNIO was used to detect endogenous TRF1 (1:500). GFP-TRF1 fluorescence was directly measured in cells fixed in paraformaldehyde. For quantification of TRF1 foci intensity, pictures of fixed cells were automatically acquired from each well by the Opera HCS system (Perkin Elmer). Sixty images of random fields per well, with a 40× magnification lens, were taken under non-saturating conditions. At least 1 × 10^3 cells were analyzed for each well. Briefly, images were segmented using the DAPI staining to generate masks matching cell nuclei from which-TRF1 foci were analyzed.

PI3Kδ = conditions: reported in literature, cited from earlier work
[2] = system: p-AKT S473 in CHA-9.3 mouse lung cancer cell line; test: Western blot of AKT phosphorylation at Ser473 in CHA-9.3 cells; type: cell-based; conditions: for p-AKT S473 inhibition (in words): 10 μM time course; for inhibition at 10 µM: Mus musculus, read-out: Inhibition pAKT (Ser 473) with regard to DMSO
Method: These new chemical probes were prepared by replacement of a single key oxygen atom from the morpholine moiety by a methylene group, generating the piperidine derivatives ETP-51259 and ETP-50952 (Fig. 1a). To assess their PI3K cellular activity, we measured phosphorylation of residue Ser473 in AKT (p-AKT S473), a PI3K downstream target[61]–[63], by western blot analysis. To this end, we used the CHA-9.3 mouse lung cancer cell line previously generated by us[39]. […] Of note, the inhibitory activity of ETP-47037 was more prolonged than that of ETP-47228. Thus, ETP-47037 mediated p-AKT S473 inhibition was maintained during the 24-hour treatment while the ETP-47228 mediated inhibition decreased 35% after 24 h as compared to 1-h treatment but still was able to inhibit the pathway above 50% (Fig. 1c).
For detection of AKT, PRAS40 (T246) and pS6 in CHA9.3 cells, untreated control (DMSO) or treated with the indicated inhibitors, were lysed in RIPA buffer supplemented with 100 mM pefablock (Roche Diagnostics) and protease inhibitor cocktail (Roche Molecular Biochemicals). Proteins were resolved on 10% SDS-PAGE, and transferred to nitrocellulose membrane (Amersham^TM Protan^TM 0.2 µm nNC). Membranes were incubated with antibodies against phospho-AKT (Ser473), AKT, phospo-S6 (Ser 235/236), and S6Ribosomal from Cell Signaling, phospo-PRAS40 (Thr246) from BIOSURCE and anti α-tubulin form Sigma, overnight at 4 °C. After washing, blots were incubated with secondary antibody: Alexa Fluor 680 goat anti-rabbit IgG (Invitrogen) or anti-mouse IgG DyLight 800 conjugated (Thermo Scientific), and visualized using an Odyssey infrared imaging system (Li-Cor Biosciences).

PI3K (p110α) = target: T2, PI3K (p110α) (Homo sapiens, UniProt P42336); test: PI3K alpha biochemical assay (ADP Hunter Plus); conditions: for IC50: internal data, read-out: PI3Kα IC50
T2 construct: purchased Cama Biosciences (sic; Carna Biosciences) #07CBS-0402A
T2 sequence (P42336 whole entry): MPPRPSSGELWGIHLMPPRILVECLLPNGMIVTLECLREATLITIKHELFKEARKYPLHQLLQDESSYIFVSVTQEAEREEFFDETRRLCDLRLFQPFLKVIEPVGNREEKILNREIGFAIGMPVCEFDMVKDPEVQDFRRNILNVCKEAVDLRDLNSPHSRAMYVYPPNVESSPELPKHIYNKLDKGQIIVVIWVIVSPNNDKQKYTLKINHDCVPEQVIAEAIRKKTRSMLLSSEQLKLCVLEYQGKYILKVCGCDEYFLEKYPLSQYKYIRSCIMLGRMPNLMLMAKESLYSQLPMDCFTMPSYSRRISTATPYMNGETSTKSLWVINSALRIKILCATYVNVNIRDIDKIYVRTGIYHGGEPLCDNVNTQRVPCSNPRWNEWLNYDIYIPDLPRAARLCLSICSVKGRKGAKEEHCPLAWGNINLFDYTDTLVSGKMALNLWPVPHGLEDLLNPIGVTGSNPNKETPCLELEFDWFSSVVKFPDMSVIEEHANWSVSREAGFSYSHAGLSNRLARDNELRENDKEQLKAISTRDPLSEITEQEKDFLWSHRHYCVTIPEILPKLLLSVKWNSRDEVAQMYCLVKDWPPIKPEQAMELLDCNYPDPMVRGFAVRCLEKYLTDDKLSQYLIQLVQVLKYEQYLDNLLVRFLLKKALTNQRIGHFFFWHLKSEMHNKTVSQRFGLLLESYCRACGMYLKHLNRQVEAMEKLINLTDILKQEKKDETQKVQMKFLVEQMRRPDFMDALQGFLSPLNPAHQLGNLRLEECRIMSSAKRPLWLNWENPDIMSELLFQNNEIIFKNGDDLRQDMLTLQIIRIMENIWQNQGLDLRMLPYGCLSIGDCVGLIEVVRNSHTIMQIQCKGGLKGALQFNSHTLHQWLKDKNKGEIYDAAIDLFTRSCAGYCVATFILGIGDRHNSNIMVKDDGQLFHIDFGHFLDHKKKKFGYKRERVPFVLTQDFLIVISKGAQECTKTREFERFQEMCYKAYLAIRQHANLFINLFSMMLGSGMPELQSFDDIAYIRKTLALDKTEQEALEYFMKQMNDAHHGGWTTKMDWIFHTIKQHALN
T2 sequence (P27986 whole entry partner): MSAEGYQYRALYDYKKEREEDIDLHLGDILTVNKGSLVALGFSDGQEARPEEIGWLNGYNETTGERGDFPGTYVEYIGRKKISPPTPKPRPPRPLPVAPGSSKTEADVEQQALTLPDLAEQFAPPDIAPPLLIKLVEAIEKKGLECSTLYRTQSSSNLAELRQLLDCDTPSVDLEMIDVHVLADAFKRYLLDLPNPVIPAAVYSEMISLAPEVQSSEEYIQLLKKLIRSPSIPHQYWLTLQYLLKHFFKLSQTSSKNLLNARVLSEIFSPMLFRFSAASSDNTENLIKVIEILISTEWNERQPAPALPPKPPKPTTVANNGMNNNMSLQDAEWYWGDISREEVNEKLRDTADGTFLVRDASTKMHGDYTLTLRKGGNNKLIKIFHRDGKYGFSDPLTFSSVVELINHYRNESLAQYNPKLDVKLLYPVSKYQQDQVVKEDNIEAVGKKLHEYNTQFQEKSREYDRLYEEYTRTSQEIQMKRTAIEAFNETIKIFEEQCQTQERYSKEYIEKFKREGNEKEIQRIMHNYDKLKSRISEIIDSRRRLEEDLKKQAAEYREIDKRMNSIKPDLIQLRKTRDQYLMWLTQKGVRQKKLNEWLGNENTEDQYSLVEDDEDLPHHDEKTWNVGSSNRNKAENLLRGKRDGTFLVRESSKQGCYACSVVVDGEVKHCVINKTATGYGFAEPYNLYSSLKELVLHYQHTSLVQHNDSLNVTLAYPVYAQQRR

[3] = system: TRF1 mRNA in CHA 9-3 lung cancer cells; test: TRF1 mRNA by qPCR; type: cell-based, mouse; conditions: 10 μM, 24 h
[4] = target: the molecule itself; test: western blot after SDS-PAGE in non-reducing conditions; nuclear extracts of Trf1-deleted MEFs expressing the GFP-tagged TRF1 variant, prepared without dithiothreitol and 2-mercaptoethanol, not heated before gel loading; blot against TRF1; one wild-type sample in reducing conditions shows the monomer

Cn1c(=O)n(-c2ccc(C(C)(C)C#N)cc2)c2c3cc(-c4cnc5ccccc5c4)ccc3ncc21 [BEZ-235]
IC50 (PI3Kγ): 75 nM
IC50 (PI3Kβ): 5 nM
IC50 (PI3Kα): 4 nM
mTOR inhibition (in words) (mTOR (FRAP1)): potent nanomolar mTOR inhibition

CC(C)C[C@H](NC(=O)[C@H](Cc1ccccc1)NC(=O)c1cnccn1)B(O)O [Bortezomib, reference compound]
TRF1 intensity levels ([1]; bortezomib 50 nM, CHA 9-3): twofold increase

COCCNC(=O)c1nc2c(N3CCOCC3)nc(-c3cnc(N)nc3)cn2c1C [ETP-46992]
IC50 (mTOR): > 3000 nM
Ki (PI3Kα; read-out: Reported data PI3Kα Kiapp): 2.4 nM
IC50 (mTOR (FRAP1)): 3690 nM

Cc1cnc2c(N3CCCCC3)nc(-c3ccc(NC(=O)Nc4ccc(C(=O)N5CCN(C)CC5)cc4)cc3)cn12 [ETP-50952]
p-AKT S473 inhibition (in words) [2]: largely unaffected
inhibition at 10 µM ([2]; 1 h, 1 h): 38%
inhibition at 10 µM ([2]; 4 h, 4 h): 18%
inhibition at 10 µM ([2]; 24 h, 24 h): 10%
Inhibition of TRF1 foci (in words) ([1]; 24 h, CHA-9.3): negligible inhibition of TRF1 foci
Activity against PI3K (in words) (PI3K (p110α)): negligible activity against PI3K
IC50 (PI3K (p110α)): 9000 nM
IC50 (mTOR (FRAP1)): > 10000 nM

CS(=O)(=O)N1CCN(Cc2cc3c(N4CCCCC4)nc(-c4cnc(N)nc4)cn3n2)CC1 [ETP-51259]
p-AKT S473 inhibition (in words) [2]: largely unaffected
inhibition at 10 µM ([2]; 1 h, 1 h): 48%
inhibition at 10 µM ([2]; 4 h, 4 h): 49%
inhibition at 10 µM ([2]; 16 h, 16 h): 4%
Inhibition of TRF1 foci (in words) ([1]; 24 h, CHA-9.3): negligible inhibition of TRF1 foci
Activity against PI3K (in words) (PI3K (p110α)): negligible activity against PI3K
IC50 (PI3K (p110α)): > 10000 nM
IC50 (mTOR (FRAP1)): > 10000 nM

CS(=O)(=O)N1CCN(Cc2cc3nc(-c4cccc5[nH]ncc45)nc(N4CCOCC4)c3s2)CC1 [GDC-0941, 2-(1H-indazol-4-yl)-6-(4-methanesulfonyl-piperazin-1-ylmethyl)-4-morpholin-4-yl-t hieno[3,2-d]pyrimidine]
TRF1 mRNA levels [3]: None of the inhibitors significantly affected

Cc1cc(C(C)Nc2ccccc2)c2nc(N3CCOCC3)cc(=O)n2c1 (stereo not drawn) [TGX-221, reference compound]
Phosphorylation of AKT (p-AKT S473) (in words) ([2]; 10 μM (GSK-2126458 1.0 μM), 24 h): moderate inhibition
PI3Kα inhibition (in words) (PI3K (p110α)): negligible PI3Kα inhibition

B1: eGFP-tagged TRF1 wild type (natural protein, mouse, UniProt P70371 1-421, looked up)
chain: MAETVSSAARDAPSREGWTDSDSPEQEEVGDDAELLQCQLQLGTPREMENAELVAEVEAVAAGWMLDFLCLSLCRAFRDGRSEDFRRTRDSAEAIIHGLHRLTAYQLKTVYICQFLTRVASGKALDAQFEVDERITPLESALMIWNSIEKEHDKLHDEIKNLIKIQAVAVCMEIGSFKEAEEVFERIFGDPEFYTPLERKLLKIISQKDVFHSLFQHFSYSCMMEKIQSYVGDVLSEKSSTFLMKAATKVVENEKARTQASKDRPDATNTGMDTEVGLNKEKSVNGQQSTETEPLVDTVSSIRSHKNALSQLKHRRAPSDFSRNEARTGTLQCETTMERNRRTSGRNRLCVSENQPDTDDKSGRRKRQTWLWEEDRILKCGVKKYGEGNWAKILSHYKFNNRTSVMLKDRWRTMKRLKLIS
notes: insert of the retroviral vector eGFP-TRF1 pWzl-Hygro; also called GFP-TRF1; eGFP-TRF1; source: Trf1 lox/lox MEFs, retroviral transduction (eGFP-TRF1 pWzl-Hygro), endogenous Trf1 deleted with Cre, in nuclear extract
stoichiometry N [4]: 2

B2: eGFP-tagged TRF1 T330A (natural protein, mouse, UniProt P70371 1-421, looked up)
chain: MAETVSSAARDAPSREGWTDSDSPEQEEVGDDAELLQCQLQLGTPREMENAELVAEVEAVAAGWMLDFLCLSLCRAFRDGRSEDFRRTRDSAEAIIHGLHRLTAYQLKTVYICQFLTRVASGKALDAQFEVDERITPLESALMIWNSIEKEHDKLHDEIKNLIKIQAVAVCMEIGSFKEAEEVFERIFGDPEFYTPLERKLLKIISQKDVFHSLFQHFSYSCMMEKIQSYVGDVLSEKSSTFLMKAATKVVENEKARTQASKDRPDATNTGMDTEVGLNKEKSVNGQQSTETEPLVDTVSSIRSHKNALSQLKHRRAPSDFSRNEARTGALQCETTMERNRRTSGRNRLCVSENQPDTDDKSGRRKRQTWLWEEDRILKCGVKKYGEGNWAKILSHYKFNNRTSVMLKDRWRTMKRLKLIS
notes: insert of the retroviral vector eGFP-TRF1 pWzl-Hygro with T330A; Made by site-directed mutagenesis of the vector of m1 with the primer mTRF1-T330A; also called GFP-TRF1 T330A
stoichiometry N [4]: 2

B3: eGFP-tagged TRF1 T248A (natural protein, mouse, UniProt P70371 1-421, looked up)
chain: MAETVSSAARDAPSREGWTDSDSPEQEEVGDDAELLQCQLQLGTPREMENAELVAEVEAVAAGWMLDFLCLSLCRAFRDGRSEDFRRTRDSAEAIIHGLHRLTAYQLKTVYICQFLTRVASGKALDAQFEVDERITPLESALMIWNSIEKEHDKLHDEIKNLIKIQAVAVCMEIGSFKEAEEVFERIFGDPEFYTPLERKLLKIISQKDVFHSLFQHFSYSCMMEKIQSYVGDVLSEKSSTFLMKAAAKVVENEKARTQASKDRPDATNTGMDTEVGLNKEKSVNGQQSTETEPLVDTVSSIRSHKNALSQLKHRRAPSDFSRNEARTGTLQCETTMERNRRTSGRNRLCVSENQPDTDDKSGRRKRQTWLWEEDRILKCGVKKYGEGNWAKILSHYKFNNRTSVMLKDRWRTMKRLKLIS
notes: insert of the retroviral vector eGFP-TRF1 pWzl-Hygro with T248A; Made by site-directed mutagenesis of the vector of m1 with the primer mTRF1-T248A; also called GFP-TRF1 T248A
stoichiometry N [4]: 2

B4: eGFP-tagged TRF1 S344A (natural protein, mouse, UniProt P70371 1-421, looked up)
chain: MAETVSSAARDAPSREGWTDSDSPEQEEVGDDAELLQCQLQLGTPREMENAELVAEVEAVAAGWMLDFLCLSLCRAFRDGRSEDFRRTRDSAEAIIHGLHRLTAYQLKTVYICQFLTRVASGKALDAQFEVDERITPLESALMIWNSIEKEHDKLHDEIKNLIKIQAVAVCMEIGSFKEAEEVFERIFGDPEFYTPLERKLLKIISQKDVFHSLFQHFSYSCMMEKIQSYVGDVLSEKSSTFLMKAATKVVENEKARTQASKDRPDATNTGMDTEVGLNKEKSVNGQQSTETEPLVDTVSSIRSHKNALSQLKHRRAPSDFSRNEARTGTLQCETTMERNRRTAGRNRLCVSENQPDTDDKSGRRKRQTWLWEEDRILKCGVKKYGEGNWAKILSHYKFNNRTSVMLKDRWRTMKRLKLIS
notes: insert of the retroviral vector eGFP-TRF1 pWzl-Hygro with S344A; Made by site-directed mutagenesis of the vector of m1 with the primer mTRF1-S344A; also called GFP-TRF1 S344A
stoichiometry N [4]: 2

B5: eGFP-tagged TRF1 T330A/S344A (natural protein, mouse, UniProt P70371 1-421, looked up)
chain: MAETVSSAARDAPSREGWTDSDSPEQEEVGDDAELLQCQLQLGTPREMENAELVAEVEAVAAGWMLDFLCLSLCRAFRDGRSEDFRRTRDSAEAIIHGLHRLTAYQLKTVYICQFLTRVASGKALDAQFEVDERITPLESALMIWNSIEKEHDKLHDEIKNLIKIQAVAVCMEIGSFKEAEEVFERIFGDPEFYTPLERKLLKIISQKDVFHSLFQHFSYSCMMEKIQSYVGDVLSEKSSTFLMKAATKVVENEKARTQASKDRPDATNTGMDTEVGLNKEKSVNGQQSTETEPLVDTVSSIRSHKNALSQLKHRRAPSDFSRNEARTGALQCETTMERNRRTAGRNRLCVSENQPDTDDKSGRRKRQTWLWEEDRILKCGVKKYGEGNWAKILSHYKFNNRTSVMLKDRWRTMKRLKLIS
notes: insert of the retroviral vector eGFP-TRF1 pWzl-Hygro with T330A and S344A; Made by site-directed mutagenesis of the vector of m1 with the primers mTRF1-T330A and mTRF1-S344A; also called TRF1 double mutant; GFP-TRF1 T330A/S344A
stoichiometry N [4]: 2
